PMC8147177, “Bio-Insecticide of Thymus vulgaris and Ocimum basilicum Extract from Cell Suspensions and Their Inhibitory Effect against Serine, Cysteine, and Metalloproteinases of the Red Palm Weevil (Rhynchophorus ferrugineus)” (Insects, 2021)

Test system: metalloproteinase of R. ferrugineus midgut
Assay: Metalloproteinase specific activity assay (azocasein) in 4th instar midgut homogenate
Type: biochemical, Rhynchophorus ferrugineus
Details: control 1.15
Description: The 4th midgut larvae (10 larvae) were pulled out gently, excised, washed with saline solution (0.9% NaCl) repeatedly to remove foodstuff and then homogenized in a 500 µL assay buffer. […] The homogenates were centrifuged at 5000× g for 30 min using the Sigma 3k30 cooling centrifuge. The supernatants were used for estimation of enzyme activity and protein concentration. […] The reaction was stopped with 300 µL of cold 10% trichloroacetic acid (TCA) and proceeded for 180 min at 37 °C. The reaction mixture was centrifuged at 5000× g for 20 min using the Sigma 3k30 cooling centrifuge, 10 µL of 10 N NaOH was added to the supernatant, and absorbance at 450 nm was measured using an ELISA plate reader. An assay mixture without an enzyme was used as the blank. […] Specific protease inhibitors were added to the reactions of proteolytic activity determination assays, and the inhibitors were: PMSF, a general serine proteinase inhibitor; […] The inhibition assay was carried out on a microplate assay as described above. A series of inhibitor concentrations was prepared in order to establish the maximum inhibition by each inhibitor. […] An assay mixture without inhibitors was used as control. Absorbance was measured using an ELISA plate reader at different nm according to the type of enzymes. Percent activity of the control for each inhibitor was calculated to each enzyme.

## O=C([O-])CN(CCN(CC(=O)O)CC(=O)O)CC(=O)[O-].[Na+].[Na+] [EDTA, ethylenediaminetetraacetic acid disodium salt]
Inhibitor 0.1 mM
  Specific activity, Metallo-Protease: 0.89 ± 0.11 OD/mg protein min
Inhibitor 1 mM
  Specific activity, Metallo-Protease: 0.80 ± 0.11 OD/mg protein min
Inhibitor 10 mM
  Specific activity, Metallo-Protease: 0.68 ± 0.11 OD/mg protein min
Inhibitor 50 mM
  Specific activity, Metallo-Protease: 0.59 ± 0.1 OD/mg protein min
Inhibitor 100 mM
  Specific activity, Metallo-Protease: 0.42 ± 0.1 OD/mg protein min
